US12398355B2, “Micro physiological model for neuronal and muscular diseases and disorders” (Massachusetts Institute of Technology, priority 2019, dated 2025)

Key:
[1] = test system: ALS motor unit (iALS-MN spheroid and iPSC-derived skeletal muscle fiber bundle); test: Drug treatment of ALS motor unit model, muscle contraction by optical stimulation; format: cell-based, human; conditions: 1-Hz optical stimulation, n=180; untreated ALS ~32.3%
Protocol: Epifluorescence and confocal images were acquired using a Zeiss Axiovert 200 microscope and an Olympus FV-1000 confocal microscope, respectively. 3D reconstruction and analysis of confocal images were performed with IMARIS software (Bitplane). Muscle contraction measurement was performed in a stage-top incubator (INUBG2TF-WSKM-SET, Tokai Hit) on Axiovert 200, and image sequences were captured using AxioVision. Automated tracking of the local deformation of the skeletal muscle cells and deflection of the pillars upon light excitation were carried out using ImageJ and Python script with an OpenCV package. Formulas for calculating muscle contraction force from pillar displacements include:
To avoid single-cell attachment to the glass bottom, the microfluidic device was incubated with 4% Pluronic F-127 (Sigma) in the incubator for 1 hour, rinsed with distilled water, and dried. […]
hESC-derived NSCs and iPSC-derived NSCs from a patient with sporadic ALS were infected with an AAV-CAG-ChR2H134R-tdTomato-WPRE plasmid to express a mutated variant of the light-sensitive ion channel, channelrhodopsin-2H134R. […] The cells were cultured for 4 days, expanded for another 3 days, and sorted by fluorescence-activated cell sorting (BD Biosciences, FACSAria II) with strong expression of tdTomato. […]

in vitro co-culture = test: Side effects of high drug concentrations in in vitro co-culture; format: cell-based; conditions: in vitro co-culture condition
[2] = test system: 3D motor unit model (MN spheroid and skeletal muscle fiber bundle)
[3] = test system: 3D motor unit model (hESC-derived MN spheroid and iPSC-derived skeletal muscle fiber bundle with NMJ); format: cell-based, human

Which “missed muscle contractions after light stimulation” value [1] does the source give for `CO[C@H]1C[C@@H]2CC[C@@H](C)[C@@](O)(O2)C(=O)C(=O)N2CCCC[C@H]2C(=O)O[C@H]([C@H](C)C[C@@H]2CC[C@@H](O)[C@H](OC)C2)CC(=O)[C@H](C)/C=C(\C)[C@@H](O)[C@@H](OC)C(=O)[C@H](C)C[C@H](C)/C=C/C=C/C=C/1C` [rapamycin] here?
The value was about 16.1%.

What about the “concentration that can cause side effects” value (in vitro co-culture) of the same compound?
Its value is “over 1 uM”.

With `N[C@@H](CCC(=O)O)C(=O)O` [glutamic acid] as the compound, how does the average contraction force [2] read?
Its average contraction force is about 0.5 pN.

And the “average frequency of muscle contractions” value [2]?
The value was 0.7 Hz.

And the “morphology after prolonged treatment” value [2]?
The value was “neurite regression and muscle atrophy”.

What about the “muscle contraction after prolonged treatment” value [2] of the same compound?
Its value is “no muscle contraction was observed”.

And the muscle contraction force [2]?
Its muscle contraction force is “relatively decreased”.

What about the muscle contraction frequency [2] of the same compound?
Its muscle contraction frequency is “dropped”.

What about the “muscle contraction with chemical stimulation” value [2] of the same compound?
The value was “significant loss of function”.

What about the “muscle contraction with electrical stimulation” value [2] of the same compound?
The value was “no significant difference”.

And the “neurotoxic effect / myotoxicity” value [2]?
Its value is “mainly caused a neurotoxic effect but no observable myotoxicity”.

With α-bungarotoxin [αBTX] as the compound, how does the “muscle contraction in the presence of αBTX” value [3] read?
The value was “completely inhibited”.

What does the source list for `NC1=N[C@H](O)[C@H]2[C@H]3O[C@]4(O)O[C@@H]([C@@H](O)[C@@]2(N1)[C@@H]4O)[C@]3(O)CO` [TTX, tetrodotoxin]?
muscle contraction after rinsing away the TTX [3]: partially recovered; muscle contraction under TTX [3]: completely prevented muscle contraction

With `COc1cc(Nc2c(C#N)cnc3cc(OCCCN4CCN(C)CC4)c(OC)cc23)c(Cl)cc1Cl` [bosutinib] as the compound, how does the “concentration that can cause side effects” value (in vitro co-culture) read?
Its value is “over 800 uM”.
